Experimental findings from PMC3723849, “Evaluation of Phage Display Discovered Peptides as Ligands for Prostate-Specific Membrane Antigen (PSMA)” (PLoS ONE, 2013) are described below.

In test [1] the target is T1, PSMA-His6 (Homo sapiens, UniProt Q04609). Description: PSMA enzyme assay (NAAG hydrolysis, Amplex Red glutamate detection). In kind it is biochemical. Details: A 15-mer library was screened against the soluble ectodomain of PSMA; purchased R&D Systems. The protocol:
The glutamic acid/glutamate released from the natural substrate of PSMA, NAAG (N-acetylaspartylglutamate), was analyzed by the fluorescence-based Amplex Red Glutamic Acid/Glutamate Oxidase assay kit (Invitrogen) as previously described, [22], [32], [33]. […] Then NAAG (4 µM, 10 µL) was added to the peptide/PSMA-His6 mixture (37°C, 30 min). The enzymatic reaction was quenched (500 mM NaH2PO4/Na2HPO4, pH 7.4, 10 µL). […] Data was analyzed by non-linear regression with GraphPad Prism.

The target of test [2] is T1, PSMA-His6. Description: AlphaScreen competition binding assay.
Description: The AlphaScreen competition binding assay was performed based on published procedures [29], [30], [31]. […] The mixture was incubated (ambient temperature, 1 h), and then nickel chelate acceptor beads (5 µL, 120 µg/mL) were added followed by a second incubation (dark, ambient temperature, 1 h). Streptavidin donor beads (5 µL, 120 µg/mL) were added for a final incubation (dark, ambient temperature, 30 m). […] Data was analyzed by non-linear regression with GraphPad Prism.
Only when the peptide binds to PSMA (thus bringing the two beads close to each other), can the AlphaScreen (emission) signal be generated, in which case, the singlet oxygen generated by the excitation at 680 nm on the donor bead can transfer energy to the adjacent acceptor bead and subsequently produce an emission signal at 520–620 nm.
Setting [3] is: NAAG substrate, PSMA-His6, 37°C, read-out: Enzyme inhibition (footnote symbols: no inhibition observed at the stated concentration).
The mark [4] stands for this setting: highest concentration tested without inhibition, limited by solubility of the peptide, read-out: PSMA enzymatic reaction: no inhibition at the stated concentration.

Structures are written as SMILES. Residues, ends and D or L forms follow the SMILES beside them. *: point of attachment. Acm = CC(=O)NC*

T1 sequence (Q04609 44-750 limits assumed): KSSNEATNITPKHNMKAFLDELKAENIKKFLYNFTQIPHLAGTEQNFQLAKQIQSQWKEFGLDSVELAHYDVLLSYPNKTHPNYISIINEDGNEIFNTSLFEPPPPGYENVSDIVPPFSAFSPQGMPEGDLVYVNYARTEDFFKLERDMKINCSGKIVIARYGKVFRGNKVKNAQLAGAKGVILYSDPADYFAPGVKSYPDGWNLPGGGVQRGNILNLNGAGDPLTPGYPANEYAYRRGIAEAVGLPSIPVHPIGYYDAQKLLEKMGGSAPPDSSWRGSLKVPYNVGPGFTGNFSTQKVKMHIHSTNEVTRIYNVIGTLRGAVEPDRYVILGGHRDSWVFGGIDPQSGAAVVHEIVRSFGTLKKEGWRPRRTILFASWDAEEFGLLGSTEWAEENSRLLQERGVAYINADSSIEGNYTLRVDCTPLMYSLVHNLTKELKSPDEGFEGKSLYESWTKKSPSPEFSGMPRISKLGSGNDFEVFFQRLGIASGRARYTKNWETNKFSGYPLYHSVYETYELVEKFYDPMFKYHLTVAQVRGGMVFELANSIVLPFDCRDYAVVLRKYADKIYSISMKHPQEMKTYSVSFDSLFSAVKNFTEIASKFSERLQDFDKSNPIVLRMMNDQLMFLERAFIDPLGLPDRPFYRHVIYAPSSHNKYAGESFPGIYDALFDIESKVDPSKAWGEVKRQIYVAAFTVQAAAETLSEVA

As to `CC(C)[C@H](NC(=O)[C@H](CO)NC(=O)[C@H](Cc1ccccc1)NC(=O)[C@H](CO)NC(=O)[C@H](Cc1c[nH]cn1)NC(=O)[C@@H](N)CO)C(=O)NCC(=O)N[C@@H](CO)C(=O)NCC(=O)N[C@@H](CC(=O)O)C(=O)N[C@@H](Cc1c[nH]cn1)C(=O)N[C@@H](CO)C(=O)N1CCC[C@H]1C(=O)N[C@@H](Cc1ccccc1)C(=O)N[C@H](C(=O)NCC(=O)NCC(=O)NCC(=O)N[C@@H](CO)C(=O)NCCOCCOCCOCCOCCOCCOCCC(=O)N[C@@H](CSC1CC(=O)N(CCC(=O)NCCCC[C@H](NC(=O)CCN2C(=O)CC(SC[C@H](NC(=O)CCOCCOCCOCCOCCOCCOCCNC(=O)[C@H](CO)NC(=O)CNC(=O)CNC(=O)CNC(=O)[C@@H](NC(=O)[C@H](Cc3ccccc3)NC(=O)[C@@H]3CCCN3C(=O)[C@H](CO)NC(=O)[C@H](Cc3c[nH]cn3)NC(=O)[C@H](CC(=O)O)NC(=O)CNC(=O)[C@H](CO)NC(=O)CNC(=O)[C@@H](NC(=O)[C@H](CO)NC(=O)[C@H](Cc3ccccc3)NC(=O)[C@H](CO)NC(=O)[C@H](Cc3c[nH]cn3)NC(=O)[C@@H](N)CO)C(C)C)[C@@H](C)O)C(N)=O)C2=O)C(=O)NCCCC[C@H](NC(=O)[C@H](CCCCNC(=O)CCN2C(=O)CC(SC[C@H](NC(=O)CCOCCOCCOCCOCCOCCOCCNC(=O)[C@H](CO)NC(=O)CNC(=O)CNC(=O)CNC(=O)[C@@H](NC(=O)[C@H](Cc3ccccc3)NC(=O)[C@@H]3CCCN3C(=O)[C@H](CO)NC(=O)[C@H](Cc3c[nH]cn3)NC(=O)[C@H](CC(=O)O)NC(=O)CNC(=O)[C@H](CO)NC(=O)CNC(=O)[C@@H](NC(=O)[C@H](CO)NC(=O)[C@H](Cc3ccccc3)NC(=O)[C@H](CO)NC(=O)[C@H](Cc3c[nH]cn3)NC(=O)[C@@H](N)CO)C(C)C)[C@@H](C)O)C(N)=O)C2=O)NC(=O)CCN2C(=O)CC(SC[C@H](NC(=O)CCOCCOCCOCCOCCOCCOCCNC(=O)[C@H](CO)NC(=O)CNC(=O)CNC(=O)CNC(=O)[C@@H](NC(=O)[C@H](Cc3ccccc3)NC(=O)[C@@H]3CCCN3C(=O)[C@H](CO)NC(=O)[C@H](Cc3c[nH]cn3)NC(=O)[C@H](CC(=O)O)NC(=O)CNC(=O)[C@H](CO)NC(=O)CNC(=O)[C@@H](NC(=O)[C@H](CO)NC(=O)[C@H](Cc3ccccc3)NC(=O)[C@H](CO)NC(=O)[C@H](Cc3c[nH]cn3)NC(=O)[C@@H](N)CO)C(C)C)[C@@H](C)O)C(N)=O)C2=O)C(=O)NCCC(=O)O)C1=O)C(N)=O)[C@@H](C)O` (stereo partly drawn) [(562)4], on PSMA-His6 [1] (against 1 µM NAAG, peptide pre-incubated with PSMA-His6 37°C 30 min, reaction 37°C 30 min, TBS, fluorescence Ex 530/Em 590, read-out: Enzyme inhibition IC50), the IC50 is 311 µM.

For the compound `CC(=O)NCSC[C@H](NC(=O)[C@H](CO)NC(=O)[C@H](Cc1ccccc1)NC(=O)[C@H](Cc1ccccc1)NC(=O)[C@H](CO)NC(=O)[C@@H](N)CC(C)C)C(=O)N[C@@H](Cc1c[nH]c2ccccc12)C(=O)N[C@@H](CC(C)C)C(=O)N[C@@H](CCCNC(=N)N)C(=O)N[C@@H](CCCNC(=N)N)C(=O)N[C@@H](CO)C(=O)N[C@@H](Cc1ccccc1)C(=O)N[C@@H](CO)C(=O)N[C@@H](CC(C)C)C(=O)N[C@H](C(N)=O)[C@@H](C)O` [Peptide 564] (H-LSFFSC(Acm)WLRRSFSLT-NH2), the IC50 at PSMA-His6 [1] (setting [3]) and at PSMA-His6 [1] (setting [4]) was greater than 55.5 µM each time.

Turning to `CC[C@H](C)[C@H](NC(=O)[C@H](CSCNC(C)=O)NC(=O)[C@H](CCCNC(=N)N)NC(=O)[C@H](CCSC)NC(=O)[C@H](CC(C)C)NC(=O)[C@H](Cc1ccccc1)NC(=O)[C@H](CC(C)C)NC(=O)[C@H](CC(C)C)NC(=O)[C@H](Cc1ccccc1)NC(=O)[C@H](CCSC)NC(=O)[C@H](CCCNC(=N)N)NC(=O)[C@H](C)N)C(=O)NCC(=O)N[C@@H](CSCNC(C)=O)C(=O)N[C@@H](Cc1ccc(O)cc1)C(N)=O` [Peptide 565] (H-ARMFLLFLMRC(Acm)IGC(Acm)Y-NH2; N-terminus assumed), the IC50 at PSMA-His6 [2] is greater than 4.83 µM; on PSMA-His6 [1] (setting [3]) it was greater than 14.5 µM; at PSMA-His6 [1] (setting [4]), greater than 14.5 µM.
